From US6399782B1, “Benzimidazole inhibitors of fructose 1,6-bisphosphatase” (Metabasis Therapeutics, Inc., priority 1997, dated 2002)
pEC50, pIC50: −log10 of the molar value.

How the values were obtained:
[1] = test system: fasted Sprague Dawley rats; experiment: Blood glucose lowering in fasted rats; assay type: in vivo, rat; settings: 20 mg/kg intraperitoneally, 18 hours fasted Sprague Dawley rats, one hour post injection
Method: Sprague Dawley rats (250-300 g) were fasted for 18 hours and then dosed intraperitoneally with 20 mg/kg of compounds 12.53, 12.61, or 12.64. The vehicle used for drug administration was 50 mM sodium bicarbonate. Blood samples were obtained from the tail vein of conscious animals just prior to injection and one hour post injection. Blood glucose was measured using a HemoCue Inc. glucose analyzer according to the instructions of the manufacturer.

[2] = test system: rat hepatocytes; experiment: Inhibition of gluconeogenesis in rat hepatocytes; assay type: cell-based; settings: for pIC50: Hepatocyte, glucose production from lactate/pyruvate, isolated rat hepatocytes, 1 hour; for inhibition of glucose production in rat hepatocytes (FIG. 4): result in words
Method: Hepatocytes were prepared from overnight fasted Sprague-Dawley rats (250-300 g) according to the procedure of Berry and Friend (Berry, M. N., Friend, D. S., 1969, J. Cell. Biol. 43, 506-520) as modified by Groen (Groen, A. K., Sips, H. J., Vervoorn, R. C., Tager, J. M., 1982, Eur. J. Biochem. 122, 87-93). Hepatocytes (75 mg wet weight/mL) were incubated in 1 ml Krebs-bicarbonate buffer containing 10 mM Lactate, 1 mM pyruvate, 1 mg/mL BSA, and test compound concentrations from 1 to 500 μM. Incubations were carried out in a 95% oxygen, 5% carbon dioxide atmosphere in closed, 50-mL Falcon tubes submerged in a rapidly shaking water bath (37° C.). After 1 hour, an aliquot (0.25 mL) was removed, transferred to an Eppendorf tube and centrifuged. 50 μL of supernatant was then assayed for glucose content using a Sigma Glucose Oxidase kit as per the manufacturer's instructions.

[3] = biological target: T1, Glycogen Phosphorylase (rabbit muscle) (Oryctolagus cuniculus, UniProt P00489); experiment: Glycogen phosphorylase selectivity assay; assay type: biochemical; settings: for pEC50: Table 3 Selectivity, read-out: Glycogen Phosphorylase (act.); for effect on glycogen phosphorylase: result in words
T1 construct: Enzyme (rabbit muscle) was purchased from Sigma; purchased Sigma; host or cells: rabbit muscle
T1 sequence (P00489 2-843 limits assumed): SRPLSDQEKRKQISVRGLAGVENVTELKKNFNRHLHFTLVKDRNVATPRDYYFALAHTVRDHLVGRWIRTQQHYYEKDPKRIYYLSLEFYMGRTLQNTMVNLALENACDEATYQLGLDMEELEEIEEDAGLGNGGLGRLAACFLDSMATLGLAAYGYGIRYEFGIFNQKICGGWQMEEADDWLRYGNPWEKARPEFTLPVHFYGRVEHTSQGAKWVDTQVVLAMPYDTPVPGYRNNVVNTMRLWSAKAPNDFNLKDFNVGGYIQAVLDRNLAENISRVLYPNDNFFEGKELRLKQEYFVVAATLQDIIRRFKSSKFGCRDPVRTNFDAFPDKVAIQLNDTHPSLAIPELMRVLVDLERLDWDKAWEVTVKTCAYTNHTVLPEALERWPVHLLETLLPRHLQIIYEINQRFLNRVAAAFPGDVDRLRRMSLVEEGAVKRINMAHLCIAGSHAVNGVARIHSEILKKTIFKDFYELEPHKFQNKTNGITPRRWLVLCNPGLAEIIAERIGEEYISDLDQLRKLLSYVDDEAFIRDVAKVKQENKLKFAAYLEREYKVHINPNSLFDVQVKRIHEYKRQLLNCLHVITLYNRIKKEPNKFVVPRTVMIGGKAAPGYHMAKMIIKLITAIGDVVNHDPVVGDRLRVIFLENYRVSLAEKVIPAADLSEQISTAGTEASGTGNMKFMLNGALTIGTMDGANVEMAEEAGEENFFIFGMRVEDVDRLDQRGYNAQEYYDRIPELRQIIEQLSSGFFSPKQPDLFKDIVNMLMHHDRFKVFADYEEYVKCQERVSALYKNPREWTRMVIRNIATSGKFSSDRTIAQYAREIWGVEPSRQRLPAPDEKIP
Method: (§1) To determine the selectivity of compounds towards FBPase, effects of FBPase inhibitors on 5 key AMP binding enzymes were measured using the assays described below:
Glycogen Phosphorylase: Enzyme (rabbit muscle) was purchased from Sigma. Activity was measured at 37° C. in reactions in which the formation of glucose 1-phosphate was coupled to the reduction of NADP via phosphoglucomutase and glucose 6-phosphate dehydrogenase. Assays were performed on 96-well microtitre plates and were read at 340 nm on a Molecular Devices Microplate Reader. Reaction mixtures consisted of 20 mM imidazole, pH 7.4, 20 mM MgCl2, 150 mM potassium acetate, 5 mM potassium phosphate, 1 mM DTT, 1 mg/ml BSA, 0.1 mM NADP, 1 unit/mL phosphoglucomutase, 1 unit/mL glucose 6-phosphate dehydrogenase, 0.5% glycogen. Test compound concentrations ranged from 1 to 500 μM. Reactions were started by the addition of 17 μg enzyme and were monitored for 20 minutes.

[4] = biological target: T2, Phosphofructokinase (rabbit liver) (Oryctolagus cuniculus, UniProt Z9KA34MY27); experiment: Phosphofructokinase selectivity assay; assay type: biochemical; settings: result in words
T2 construct: Phosphofructokinase: Enzyme (rabbit liver) was purchased from Sigma
Method: as §1
Phosphofructokinase: Enzyme (rabbit liver) was purchased from Sigma. Activity was measured at 30° C. in reactions in which the formation of fructose 1,6-bisphosphate was coupled to the oxidation of NADH via the action of aldolase, triosephosphate isomerase, and α-glycerophosphate dehydrogenase. Reaction mixtures (200 μL) were made up in 96-well microtitre plates and were read at 340 nm in a Molecular Devices Microplate Reader. The mixtures consisted of 200 mM Tris-HCl pH 7.0, 2 mM DTT, 2 mM MgCl2, 0.2 mM NADH, 0.2 mM ATP, 0.5 mM Fructose 6-phosphate, 1 unit aldolase/ml, 3 units/ml triosephosphate isomerase, and 4 units/mL α-glycerophosphate dehydrogenase. Test compound concentrations ranged from 1 to 500 μM. Reactions were started by the addition of 0.0025 units of phosphofructokinase and were monitored for 15 minutes.

T2 sequence (Z9KA34MY27 1-780): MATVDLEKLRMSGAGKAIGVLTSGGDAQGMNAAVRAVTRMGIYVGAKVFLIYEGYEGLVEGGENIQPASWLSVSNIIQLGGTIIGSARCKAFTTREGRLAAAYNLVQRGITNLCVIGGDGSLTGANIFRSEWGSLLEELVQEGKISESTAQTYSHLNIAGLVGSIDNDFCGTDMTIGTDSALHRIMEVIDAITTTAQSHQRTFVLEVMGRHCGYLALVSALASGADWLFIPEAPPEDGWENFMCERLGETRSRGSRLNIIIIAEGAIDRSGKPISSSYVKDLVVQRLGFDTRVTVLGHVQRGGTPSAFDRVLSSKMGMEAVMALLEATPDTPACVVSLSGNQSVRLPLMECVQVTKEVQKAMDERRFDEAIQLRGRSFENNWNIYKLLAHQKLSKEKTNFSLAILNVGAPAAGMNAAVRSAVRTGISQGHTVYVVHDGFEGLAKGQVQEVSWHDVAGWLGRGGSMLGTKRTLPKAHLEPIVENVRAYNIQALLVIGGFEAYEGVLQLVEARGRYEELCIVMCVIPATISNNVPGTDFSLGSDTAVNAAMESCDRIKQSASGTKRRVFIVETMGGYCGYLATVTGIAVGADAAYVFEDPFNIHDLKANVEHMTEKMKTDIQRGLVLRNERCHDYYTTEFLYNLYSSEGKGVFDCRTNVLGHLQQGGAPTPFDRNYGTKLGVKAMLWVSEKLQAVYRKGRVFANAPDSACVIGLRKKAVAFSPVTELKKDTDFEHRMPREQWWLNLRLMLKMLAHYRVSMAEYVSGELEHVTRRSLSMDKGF

pEC50 [3]	effect on glycogen phosphorylase [3]	effect on phosphofructokinase [4]	activation of glycogen phosphorylase ([3]; concentrations of drug ranging from 5 to […])	Compound	blood glucose lowering [1]	pIC50 [2]	inhibition of glucose production in rat hepatocytes (FIG. 4) [2]
< 4.00	essentially without effect	essentially without effect		Nc1c(F)ccc2c1nc(-c1ccc(P(=O)(O)O)o1)n2CC1CC1 [Compound 12.61, 4-Amino-5-fluoro-1-cyclopropylmethyl-2-(2-phosphono-5-furanyl)benzimidazole]	48±15%	5.48	inhibit glucose production in vitro in rat hepatocytes
< 3.30			no activation of the enzyme was observed	CCc1cc(F)c(N)c2nc(-c3ccc(P(=O)(O)O)o3)n(CC(C)C)c12 [Compound 12.64]	64.6±24%	5.60	
< 3.70	essentially inactive	essentially inactive		CCn1c(-c2ccc(P(=O)(O)O)o2)nc2c(N)cccc21 [Compound 12.1, 4-Amino-1-ethyl-2-[2-(5-phosphono)furanyl]benzimidazole]		3.96	inhibit glucose production in vitro in rat hepatocytes
